Laboratory results reported in PubChem BioAssay AID2060499 (Molecular Pharmacology Branch, DTP, NCI, 2025).

Tested on: 777334-354-R2-J4-PDC tumor spheroids with HUVEC/MSC, viability
Assay: Anticancer human tumor 777334-354-R2-J4-PDC patient-derived pancreatic adenocarcinoma cell line growth inhibition [GQUAD]
Details: for IC50: curve of first compound; for viability, T/C: stronger effect = lower value
Text: DNA G-quadruplex Stabilizer Agents in Combinations in Complex Spheroids
A high-throughput screen of multi-cell type tumor spheroids was designed to identify active combinations of DNA G-quadruplex stabilizer agents and targeted small molecules. Complex spheroids include a stromal component modeled by human endothelial cells (HUVEC) and fibroblasts modeled by human mesenchymal stem cells (MSCs). The concentration ranges selected for each drug and investigational agent were based upon clinically achievable concentrations if the clinical Cmax of the agent was known.
Compounds. The drugs and investigational agents: pidnarulex (CX-5461; NSC782164), APTO-253 (NSC789042), BRACO-19 (NSC847499), peposertib (NSC802822), ceralasertib (NSC780249), elimusertib (NSC800525), camonsertib (NSC841442), AZD-1390 (NSC803789), olaparib (NSC753686), talazoparib (NSC767125), ART-558 (NSC835418), sotorasib (NSC818433), MRTX-1133 (NSC836407), SN-38 (NSC673596), topotecan (NSC609699), etoposide (NSC141540), doxorubicin (NSC123127), gemcitabine (NSC613327), 5-fluorouracil (NSC19893), paclitaxel (NSC125973), vemurafenib (NSC761431), panobinostat (NSC761190), R-306465 (JNJ-16241199; NSC773264), adavosertib (NSC754352), TP-3654 (NSC805149), carboplatin (NSC241240), KSQ-4279 (NSC840948), and staurosporine (NSC755774) were obtained from the National Cancer Institute (NCI) Developmental Therapeutics Program Chemical Repository (34). The FDA-approved anticancer drug set is available from the NCI Developmental Therapeutics Program. […] The stock solutions were prepared in dimethyl sulfoxide (DMSO, Sigma-Aldrich, St. Louis, MO, cat. D2650) at 800-fold the tested concentration and stored at -70 degrees C prior to their use. All drugs and investigational agents were tested over a range starting from a high concentration at or near the clinical Cmax and decreasing in half-log increments. If the clinical Cmax for an agent had not been determined, the highest concentration tested was 10 microM.
2.3 Cell Culture. All cells were maintained in an incubator at 37 degrees C and 5% CO2 with 95% humidity. The PDC lines were cultured according to standard operating procedures established by the NCI PDMR. All PDCs were thawed and cultured in Matrigel-coated flasks prepared with a working solution of 1X Ham's F-12 nutrient mix, without supplementation (Invitrogen, cat. 11765054), 100 U/mL penicillin-streptomycin (Invitrogen, cat. 15140122), and 2.5% Matrigel (Corning Inc., cat. 354248) for the first three passages. The 857933-349-R-J2-PDC line was cultured in 6C/Colon 1B media, which includes advanced DMEM/F-12 (Thermo Fisher Scientific, cat. 12634028), 10 mM HEPES (Thermo Fisher Scientific, cat. 15630080), 1X GlutaMAX supplement (Thermo Fisher Scientific, cat. 35050061), 0.1 mg/mL primocin (InvivoGen, cat. ant-pm-2), 10% defined fetal bovine serum, heat inactivated (HyClone Laboratories Inc., cat. SH30070.03HI), 50% L-WRN conditioned media (ATCC, cat. CRL-3276), 1.25 mM N-Acetyl-L-cysteine (Sigma-Aldrich, cat. A9165), 10 mM nicotinamide (Sigma-Aldrich, cat. N0636), 1X B-27 supplement (Thermo Fisher Scientific, cat. 17504044), 1X N-2 supplement (Thermo Fisher Scientific, cat. 17502048), 10 microM Y-27632 dihydrochloride (Tocris Bioscience, cat. 1254), and 50 ng/mL human EGF recombinant protein (Thermo Fisher Scientific, cat. PHG0311). The 485176-168-R4-J1-PDC line was cultured in Panc media, which includes all 6C/Colon 1B media components plus 100 ng/mL human FGF-10 (Thermo Fisher Scientific, cat. 100-26), 500 nM SB-431542 (Selleckchem, cat. S1067), and gastrin (Tocris, cat. 3006).
[…]

[1] = second compound 0.0316 µM, first compound 0.0316 µM
[2] = second compound 0.0316 µM, first compound 0.1 µM
[3] = second compound 0.0316 µM, first compound 0.316 µM
[4] = second compound 0.0316 µM, first compound 1 µM
[5] = second compound 0.0316 µM, first compound 3.16 µM
[6] = second compound 0.0316 µM, first compound 10 µM
[7] = second compound 0.1 µM, first compound 0.0316 µM
[8] = second compound 0.1 µM, first compound 0.1 µM
[9] = second compound 0.1 µM, first compound 0.316 µM
[10] = second compound 0.1 µM, first compound 1 µM
[11] = second compound 0.1 µM, first compound 3.16 µM
[12] = second compound 0.1 µM, first compound 10 µM
[13] = second compound 0.316 µM, first compound 0.0316 µM
[14] = second compound 0.316 µM, first compound 0.1 µM
[15] = second compound 0.316 µM, first compound 0.316 µM
[16] = second compound 0.316 µM, first compound 1 µM
[17] = second compound 0.316 µM, first compound 3.16 µM
[18] = second compound 0.316 µM, first compound 10 µM
[19] = second compound 1 µM, first compound 0.0316 µM
[20] = second compound 1 µM, first compound 0.1 µM
[21] = second compound 1 µM, first compound 0.316 µM
[22] = second compound 1 µM, first compound 1 µM
[23] = second compound 1 µM, first compound 3.16 µM
[24] = second compound 1 µM, first compound 10 µM
[25] = second compound 3.16 µM, first compound 0.0316 µM
[26] = second compound 3.16 µM, first compound 0.1 µM
[27] = second compound 3.16 µM, first compound 0.316 µM
[28] = second compound 3.16 µM, first compound 1 µM
[29] = second compound 3.16 µM, first compound 3.16 µM
[30] = second compound 3.16 µM, first compound 10 µM
[31] = second compound 10 µM, first compound 0.0316 µM
[32] = second compound 10 µM, first compound 0.1 µM
[33] = second compound 10 µM, first compound 0.316 µM
[34] = second compound 10 µM, first compound 1 µM
[35] = second compound 10 µM, first compound 3.16 µM
[36] = second compound 10 µM, first compound 10 µM
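Further: spheroids exposed to compounds for 7 days before readout.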

`COc1ncnc(C2CC2)c1-c1ncc2cnn(Cc3ccc(-c4nc(C(F)(F)F)cn4C(C)C)cc3)c2n1` + CN(C)c1ccc(Nc2c3ccc(NC(=O)CCN4CCCC4)cc3nc3cc(NC(=O)CCN4CCCC4)ccc23)cc1 was tested, and the IC50 (second compound 0.0316 µM) was > 10 µM, the IC50 (second compound 0.1 µM) was > 10 µM and the IC50 (second compound 0.316 µM) was > 10 µM. The IC50 (second compound 1 µM) was > 10 µM, the IC50 (second compound 3.16 µM) was > 10 µM and the IC50 (second compound 10 µM) was > 10 µM. The viability, T/C [1] was 103%, the viability, T/C [2] was 94.8% and the viability, T/C [3] was 108%. For the same compound, the viability, T/C [4] was 95.7%, the viability, T/C [5] was 105% and the viability, T/C [6] was 111%. The viability, T/C [7] was 104%, the viability, T/C [8] was 91.1% and the viability, T/C [9] was 94.4%. It also gave a viability, T/C [10] of 84.5%, a viability, T/C [11] of 100% and a viability, T/C [12] of 98.3%. For the same compound, the viability, T/C [13] was 97.7%, the viability, T/C [14] was 94.5% and the viability, T/C [15] was 94%. It also gave a viability, T/C [16] of 95%, a viability, T/C [17] of 109% and a viability, T/C [18] of 105%. For the same compound, the viability, T/C [19] was 96.2%, the viability, T/C [20] was 101% and the viability, T/C [21] was 94.5%. It also gave a viability, T/C [22] of 93.8%, a viability, T/C [23] of 106% and a viability, T/C [24] of 96.8%. For the same compound, the viability, T/C [25] was 84.1%, the viability, T/C [26] was 85.1% and the viability, T/C [27] was 92.6%. It also gave a viability, T/C [28] of 94.2%, a viability, T/C [29] of 97.2% and a viability, T/C [30] of 91.9%. It also gave a viability, T/C [31] of 81.2%, a viability, T/C [32] of 73.5% and a viability, T/C [33] of 80.1%. It also gave a viability, T/C [34] of 75.6%, a viability, T/C [35] of 70.6% and a viability, T/C [36] of 58.4%.
Compound `COc1ccc([C@@H](O)c2cc(-c3ncnc4cc(N5CCOCC5)ccc34)c(F)cc2Cl)nn1` + Cc1[nH]c2ccc(F)cc2c1-c1nc2c3cccnc3c3ncccc3c2[nH]1 has an IC50 (second compound 0.0316 µM) of 3.89 µM, an IC50 (second compound 0.1 µM) of 3.88 µM and an IC50 (second compound 0.316 µM) of 3.44 µM. For the same compound, the IC50 (second compound 1 µM) was 1.89 µM, the IC50 (second compound 3.16 µM) was < 0.0316 µM and the IC50 (second compound 10 µM) was < 0.0316 µM. For the same compound, the viability, T/C [1] was 102%, the viability, T/C [2] was 91% and the viability, T/C [3] was 95%. For the same compound, the viability, T/C [4] was 76%, the viability, T/C [5] was 54.5% and the viability, T/C [6] was 30.3%. For the same compound, the viability, T/C [7] was 110%, the viability, T/C [8] was 98.8% and the viability, T/C [9] was 93%. The viability, T/C [10] was 71%, the viability, T/C [11] was 55.4% and the viability, T/C [12] was 30.5%. For the same compound, the viability, T/C [13] was 92.8%, the viability, T/C [14] was 92.9% and the viability, T/C [15] was 88.2%. For the same compound, the viability, T/C [16] was 80.3%, the viability, T/C [17] was 51.4% and the viability, T/C [18] was 28.9%. It also gave a viability, T/C [19] of 79.9%, a viability, T/C [20] of 89.9% and a viability, T/C [21] of 76.8%. The viability, T/C [22] was 61.8%, the viability, T/C [23] was 40.6% and the viability, T/C [24] was 22.2%. For the same compound, the viability, T/C [25] was 46.1%, the viability, T/C [26] was 43.4% and the viability, T/C [27] was 36.7%. For the same compound, the viability, T/C [28] was 17.7%, the viability, T/C [29] was 13.6% and the viability, T/C [30] was 9.99%. It also gave a viability, T/C [31] of 35.4%, a viability, T/C [32] of 29.1% and a viability, T/C [33] of 27.8%. The viability, T/C [34] was 15.2%, the viability, T/C [35] was 13% and the viability, T/C [36] was 12.6%.
